Measured values: US10302631B2, “Genetically encoded probe for quantification of pyruvate concentration and methods of using the same” (CENTRO DE ESTUDIOS CLENTIFICOS DE VALDIVIA, priority 2013, dated 2019)

Legend:
[1] = system: monocarboxylate transporter (MCT); assay: Initial rate of uptake of 1 mM pyruvate measured with the sensor, inhibition by MCT blockers; assay type: cell-based, mice; settings: astrocytic uptake
Protocol: In this first embodiment, with the information obtained in the calibration step, the disruption of the steady-state of pyruvate entering the cell is carried out by altering the extracellular concentration of pyruvate, thus exposing the cells to pyruvate. This causes a rise in intracellular pyruvate that is monitored with the pyruvate sensor and whose initial rate is independent of pyruvate metabolism and can be used to estimate kinetic parameters (FIG. 18). Exposure of the cells to increasing concentrations of pyruvate allows the estimation of kinetic parameters for the pyruvate transporter. Kinetic parameters are also obtained from the decrease in intracellular pyruvate after removal of extracellular pyruvate. The identity of the transport pathway for pyruvate can be determined by the use of pharmacological blockers of specific transporter proteins, such as phloretin or AR-C155858 (FIG. 18 and FIG. 19), or other such as parachloromercurybenzoate, anti-MCT antisera, etc., or with compounds that interfere with the expression of specific transporter proteins, such as shRNA or siRNA, or by other similar means.
Animals and Cell Cultures. […]
(§1) Fluorescence Measurements. Nickel-purified proteins were resuspended at 100 nM in an intracellular buffer containing (mM): 10 NaCl, 130 KCl, 1.25 MgSO4 and 10 HEPES, pH 7.0, and measured with a microplate reader analyzer (EnVision, PerkinElmer). […]

HEK293 cells = assay: Rate of cellular pyruvate production after MCT blockage; assay type: cell-based
Protocol: In this second embodiment cells are incubated under physiological concentrations of glucose, lactate and pyruvate, and with the information obtained in the calibration step and the known sensitivity of surface pyruvate transporters to specific inhibitors, the steady-state of pyruvate is acutely disrupted by blocking the function of pyruvate transporter, for example by addition of a pharmacological blocker of the pyruvate transporter. In mammalian cells, the pyruvate transporter is the MCT and can be blocked with phloretin, parachloromercurybenzoate, AR-C155858, anti-MCT antisera, or other suitable compounds. […] If the cell is a net pyruvate importer, application of the MCT-blocker causes a fall in intracellular pyruvate concentration, the initial rate of which is equal to the rate of pyruvate consumption on the steady-state. […] A critical property of this sensor is that has a single component of binding so that it allows accurate quantitation of these rates. […]
as §1, with “PerkinElmer). The proteins were excited at 430 nm and the intensity of fluorescence emission of mTFP and Venus were recorded at 485 nm (FmTFP) and 528 nm (FVenus), respectively.” for “PerkinElmer).”

[2] = system: mitochondrial pyruvate consumption in HEK293 cells; assay: Rate of mitochondrial pyruvate consumption, pyruvate as exclusive substrate, after MCT blockage; assay type: cell-based
Pyronic = assay: Specificity: effect of a panel of metabolites on the purified sensor and on its response to pyruvate; assay type: biochemical, Escherichia coli
Protocol: The specificity was investigated by exposing the sensor to high concentrations of a panel of metabolites of natural occurrence (FIG. 9). From the chosen set of molecules, citrate and oxalacetate produced a modest effect at 1 mM, and a very small at 100 μM Oxalacetate levels are in the low micromolar range and should not affect the pyruvate sensor, and cytosolic citrate levels are below 100 μM (Siess et al., 1978; Kauppinen et al., 1982), and therefore should have a negligible effect on the pyruvate sensor. Further to explore the specificity, the effect of a panel of metabolites on the response of the sensor to pyruvate was explored (FIGS. 10, 11 and 12). […] The response of the sensor to pyruvate was insensitive to the extreme values of the redox ratio, achieved by manipulating NAD^+ and NADH (FIG. 13).
Fluorescence Measurements. Nickel-purified proteins were resuspended at 100 nM in an intracellular buffer containing (mM): 10 NaCl, 130 KCl, 1.25 MgSO4 and 10 HEPES, pH 7.0, and measured with a microplate reader analyzer (EnVision, PerkinElmer). The proteins were excited at 430 nm and the intensity of fluorescence emission of mTFP and Venus were recorded at 485 nm (FmTFP) and 528 nm (FVenus), respectively. The ratio (R) between FmTFP and FVenus was used to characterize the sensors. Emission spectra were obtained at 430 nm excitation, with 2 nm windows. Cells were imaged at room temperature (22-25° C.) in a 95% air/5% CO2-gassed solution of the following composition (in mM): 112 NaCl, 1.25 CaCl2, 1.25 MgSO4, 1-2 glucose, 10 HEPES, 24 NaHCO^3, pH 7.4, with 3 mM KCl (astrocytes) or 5 mM KCl (HEK and T98G) using an upright Olympus FV1000 Confocal Microscope equipped with a 20× water immersion objective (N.A. 1.0) and a 440 nm solid-state laser. Alternatively, cells were imaged with an Olympus IX70 or with an Olympus BX51 microscope equipped with a 40× oil-immersion objective (NA 1.3) or with a 20× water-immersion objective (NA 0.95). Microscopes were equipped with CAIRN monochromators (Faversham, UK), and either a Hamamatsu Orca camera controlled by Kinetics software or a Rollera camera controlled with Metafluor software, respectively. For sensor ratio measurements, cells were excited at 430 nm for 0.2-0.8 s. Emission was divided with a CAIRN Optosplit, equipped with band pass filters at 480±20 (FmTFP) and 535±15 nm (FVenus). The ratio between FmTFP and FVenus was used to measure pyruvate.

`Cc1n[nH]c(C)c1Cc1sc2c(c1C(=O)N1C[C@H](O)CO1)c(=O)n(C)c(=O)n2CC(C)C` [AR-C155858] was tested, and the “inhibition of initial rate of uptake of 1 mM pyruvate” value ([1]; blocker at 1 μM) was “strongly inhibited”, the “change in intracellular pyruvate after MCT blockage” value (HEK293 cells; HEK293 cells, blocker at 1 μM) was “increase in intracellular pyruvate” and the “rate of accumulation of intracellular pyruvate after MCT blockage” value (HEK293 cells; single HEK293 cell) was 0.72 µM/s. The “change in cytosolic pyruvate concentration after MCT blockage” value ([2]; cells deprived of glucose, high extracellular pyruvate) was “fall in the cytosolic pyruvate concentration” and the “rate of decrease in intracellular pyruvate after MCT blockage” value ([2]; single HEK293 cell, pyruvate as exclusive substrate) was 1.73 µM/s.

With `O=C(O)CC(O)(CC(=O)O)C(=O)O` [citrate] the “effect on the fluorescence ratio of the sensor” value (from here on “effect on the fluorescence ratio”) (Pyronic; metabolite at 100 μM) was “very small”, the “effect on the response of the sensor to pyruvate” value (Pyronic; metabolite at 100 μM) was “very small effect” and the “effect on the fluorescence ratio” value (Pyronic; metabolite at 1 mM) was “modest effect”. The “effect on the response of the sensor to pyruvate” value (Pyronic; metabolite at 1 mM) was “significant effect”.

In the case of `O=C(O)CC(=O)C(=O)O` [oxalacetate], the “effect on the fluorescence ratio” value (Pyronic; metabolite at 100 μM) is reported as “very small” and the “effect on the fluorescence ratio” value (Pyronic; metabolite at 1 mM) is reported as “modest effect”.

`O=C(CCc1ccc(O)cc1)c1c(O)cc(O)cc1O` [phloretin] was tested, and the “inhibition of initial rate of uptake of 1 mM pyruvate” value ([1]; blocker at 50 μM) was “strongly inhibited”.
